Data taken from patent publication US20090105200A1, “Combination therapy” (priority 2007, published 2009).

Key:
[1] = tested on: Mcl-1; test: Immunoblot analysis of Mcl-1; type: cell-based, human
Description: (§1) Methods. […] Immunoblot analysis (30 μg of protein per condition) was performed to detect cleavage of caspase-12 and PARP, levels of IκB c, phospho-IκBα, p65, p100/p52, as well as expression of NF-κB downstream anti-apoptotic proteins. Parallel studies were performed in two established CLL cell lines (JVM-3 and MEC-2, DSMZ).

[2] = tested on: primary CLL cells; test: Cell death by 7AAD staining/flow cytometry and Wright-Giemsa stained cytospin slides; type: cell-based, human; details: 24 hours; for toxicity to CLL cells (photomicrographs): individual treatment, 3 nM
[3] = tested on: NF-κB2 precursor p100; test: Immunoblot analysis of p100/p52; type: cell-based, human; details: bortezomib with romidepsin
Description: as §1

[4] = tested on: dexamethasone-resistant (MM.1R) human myeloma cells; test: Apoptosis by Annexin V staining and flow cytometry; type: cell-based; details: 24 hours; 1 nM romidepsin with 2 nM bortezomib
[5] = tested on: bortezomib-resistant cells (U266/PS-R); test: Apoptosis by Annexin V-FITC staining and flow cytometry; type: cell-based, human; details: 48 hours; 2 nM romidepsin with 5-15 nM bortezomib
[6] = tested on: NF-κB; type: cell-based, human; details: romidepsin alone
Description: as §1

[7] = Phase I/II dose escalation trial: toxicity and maximum tolerated dose; type: in vivo, human; details: dose level 2; with bortezomib 1.3 mg/m^2 and dexamethasone 20 mg; 28-day cycle
Text: The trial design is illustrated in FIG. 10.
Specifically, during phase I (accelerated dose escalation phase), an accelerated titration design was used to ascertain the MTD of romidepsin. For example, if no dose limiting toxicities (DLTs) and <2 patients have moderate toxicities in cycle 1 (C1), the next patient is entered at one level higher. According to National Cancer Institute Common Toxicity Criteria (NCI-CTC) (version 3), DLT is defined as platelets<25×10^9/L; Grade 4 neutropenia despite G-CSF support; Grade 3 or 4 nausea, emesis, or diarrhea despite treatment; any other Grade 3 or 4 non-haematological toxicity; or >4 week suspension of treatment due to toxicity. The accelerated phase ends when one patient has a DLT during C1 or two patients have “moderate” toxicity during first treatment cycles. Patients were entered in cohorts of three according to the standard dose escalation design. A maximum of six patients were treated at any dose level. MTD is defined as the highest dose level at which the incidence of DLT is less than 33%. […]

[8] = bortezomib 3 nM with romidepsin 3-5 nM, five patients

Structure (SMILES)	Mcl-1 level ([1]; bortezomib alone)	toxicity to CLL cells (photomicrographs) [2]	processing of NF-κB2 precursor p100 into p52 [3]	effect on bortezomib lethality [4]	bortezomib-induced Mcl-1 accumulation ([1]; cells co-exposed to romidepsin)	primary CLL samples with additive lethality [2, 8]	primary CLL samples with increased bortezomib lethality [2, 8]	effect on bortezomib lethality [5]	NF-κB activity [6]	maximum tolerated dose of romidepsin [7]
CC(C)C[C@H](NC(=O)[C@H](Cc1ccccc1)NC(=O)c1cnccn1)B(O)O [bortezomib, [(1R)-3-methyl-1-[[(2S)-1-oxo-3-phenyl-2-[(pyrazinylcarbonyl)amino]propyl]amino]butyl]boronic acid]	induced accumulation of Mcl-1	relatively non-toxic	blocked romidepsin-mediated processing of NF-κB2 precursor p100 into its active p52 form							
C/C=C1\NC(=O)[C@H]2CSSCC/C=C/[C@H](CC(=O)N[C@H](C(C)C)C(=O)N2)OC(=O)[C@H](C(C)C)NC1=O [romidepsin, (1S,4S,10S,16E,21R)-7-[(2Z)-ethylidene]-4,21-diisopropyl-2-oxa-12,13-dithia-5,8,20,23-tetraazabicyclo[8.7.6]tricos-16-ene-3,6,9,19,22-pentanone]		relatively non-toxic		potentiate bortezomib lethality	diminished	additive lethality in one sample	dramatically increased bortezomib lethality in four out of five primary CLL samples	potentiates bortezomib lethality	activated NF-κB activity	10 mg/m^2
